According to ChEMBL document CHEMBL1124376, “Topically active carbonic anhydrase inhibitors. 2. Benzo[b]thiophenesulfonamide derivatives with ocular hypotensive activity” (J Med Chem, 1989):
pIC50: −log10 of the molar value. The source made the active and inactive calls. The calls are words filed in the database; no cut-off is given here.

system: Oryctolagus cuniculus; assay: Reduction in maximum Intra ocular pressure in the rabbit model of ocular hypertension, when treated with a minimum effective oral dose of 10 mg/Kg; NE is No Effect; type: functional, organism-based; details: Eye

Row | Compound | Activity
1 | CC(=O)Nc1nnc(S(N)(=O)=O)s1 [ACETAZOLAMIDE] | inactive

target: T1, Carbonic anhydrase 2 (Homo sapiens, UniProt P00918); assay: Concentration of inhibitor required to reduce the rate of carbonic anhydrase II catalyzed CO2 hydration by 50%.; details: read-out: I50

Row | Compound | pIC50
2 | CC(C)(C)C(=O)Oc1ccc2cc(S(N)(=O)=O)sc2c1 | 8.59
3 | CC(=O)Oc1ccc2cc(S(N)(=O)=O)sc2c1 | 8.40

system: Oryctolagus cuniculus; assay: Reduction in maximum Intra ocular pressure in the rabbit model of ocular hypertension, when treated with a minimum effective topical dose of 5%; details: not given

Row | Compound | Activity [mmHg]
4 | CC(=O)/N=c1/sc(S(N)(=O)=O)nn1C [METHAZOLAMIDE] | -5.1

system: Oryctolagus cuniculus; assay: Reduction in maximum Intra ocular pressure in the rabbit model of ocular hypertension, when treated with a minimum effective topical dose of 0.05%; details: not given

Row | Compound | Activity [mmHg]
5 | CC(C)(C)C(=O)Oc1ccc2cc(S(N)(=O)=O)sc2c1 | -4.7
6 | NS(=O)(=O)c1cc2ccc(O)cc2s1 | -5.6

system: Oryctolagus cuniculus; assay: Reduction in maximum Intra ocular pressure in the rabbit model of ocular hypertension, when treated with a minimum effective topical dose of 10%; NE means No Effect; details: Eye

Row | Compound | Activity
7 | CCOc1ccc2nc(S(N)(=O)=O)sc2c1 | inactive

target: T1, Carbonic anhydrase 2; assay: not given; details: not given

Row | Compound | pIC50
8 | NS(=O)(=O)c1cc2ccc(OS(=O)(=O)O)cc2s1 | 8.17
9 | NS(=O)(=O)c1cc2cccc(O)c2s1 | 7.96
10 | CC(C)(C)NCC(O)COc1ccc2cc(S(N)(=O)=O)sc2c1 (configuration not stated) | 7.74
11 | CN(C)C(=O)Oc1ccc2sc(S(N)(=O)=O)cc2c1 | 8.30
12 | COc1ccc2sc(S(N)(=O)=O)cc2c1 | 7.64
13 | Nc1ccc2cc(S(N)(=O)=O)sc2c1 | 8.00
14 | CC(=O)Nc1ccc2cc(S(N)(=O)=O)sc2c1 | 8.32
15 | NS(=O)(=O)c1cc2c(O)cccc2s1 | 7.92
16 | COCc1ccc2sc(S(N)(=O)=O)cc2c1 | 8.05
17 | NS(=O)(=O)c1cc2cc(CO)ccc2s1 | 8.05
18 | NS(=O)(=O)c1cc2ccc(OP(=O)(O)O)cc2s1 | 7.00
19 | NS(=O)(=O)c1cc2cc(O)ccc2s1 | 8.21
20 | COc1cccc2cc(S(N)(=O)=O)sc12 | 7.30
21 | NS(=O)(=O)c1cc2ccc(OCC(=O)O)cc2s1 | 7.85
22 | CC(C)(C)N1CC(COc2ccc3cc(S(N)(=O)=O)sc3c2)OC1=O (configuration not stated) | 8.10
23 | COc1ccc2cc(S(N)(=O)=O)sc2c1 | 8.06
24 | CC(=O)c1ccc2cc(S(N)(=O)=O)sc2c1 | 8.22
25 | NS(=O)(=O)c1cc2cc(CN3CCOCC3)ccc2s1 | 7.82
26 | NS(=O)(=O)c1cc2ccccc2s1 | 8.28
27 | CN(C)Cc1ccc2sc(S(N)(=O)=O)cc2c1 | 7.92
28 | CC(C)COC(=O)Oc1ccc2cc(S(N)(=O)=O)sc2c1 | 8.25
29 | CN(C)CCSCc1ccc2sc(S(N)(=O)=O)cc2c1 | 7.82
30 | COc1cccc2sc(S(N)(=O)=O)cc12 | 7.92
31 | CC(=O)OCc1ccc2sc(S(N)(=O)=O)cc2c1 | 8.00

system: Oryctolagus cuniculus; assay: Reduction in maximum Intra ocular pressure in the rabbit model of ocular hypertension, when treated with a minimum effective topical dose of 0.10%; details: not given

Row | Compound | Activity [mmHg]
32 | NS(=O)(=O)c1cc2ccc(O)cc2s1 | -6.6

system: Oryctolagus cuniculus; assay: Reduction in maximum Intra ocular pressure in the rabbit model of ocular hypertension, when treated with a minimum effective oral dose of 1.25 mg/kg; type: functional, Eye; details: not given

Row | Compound | Activity [mmHg]
33 | NS(=O)(=O)c1cc2ccc(O)cc2s1 | -7.7
34 | CC(=O)Nc1nnc(S(N)(=O)=O)s1 [ACETAZOLAMIDE] | -6.3

system: Oryctolagus cuniculus; assay: Reduction in maximum Intra ocular pressure in the rabbit model of ocular hypertension, when treated with a minimum effective topical dose of 0.25%; details: not given

Row | Compound | Activity [mmHg]
35 | CC(C)(C)C(=O)Oc1ccc2nc(S(N)(=O)=O)sc2c1 | -7.8

system: Oryctolagus cuniculus; assay: Reduction in maximum Intra ocular pressure in the rabbit model of ocular hypertension, when treated with a minimum effective topical dose of 10%; details: not given

Row | Compound | Activity [mmHg]
36 | NS(=O)(=O)c1cc(Cl)c(Cl)c(S(N)(=O)=O)c1 [DICHLORPHENAMIDE] | -4.7

system: Oryctolagus cuniculus; assay: Reduction in maximum Intra ocular pressure in the rabbit model of ocular hypertension, when treated with a minimum effective topical dose of 0.10%; details: not given; remark: another data set of the same source

Row | Compound | Activity [mmHg]
37 | CC(=O)Oc1ccc2cc(S(N)(=O)=O)sc2c1 | -5.3
